From patent US5763453A, “Condensed indan derivatives and salts thereof” (Taiho Pharmaceutical Co., Ltd., priority 1995, dated 1998) come the findings set out here.

In brackets after ≈: the same amount, converted by molar mass. Counter-ions that a name gives are not always drawn.

For the assay, the system named is P 388 mouse leukemia cell line. The assay can be described thus: Cytocidal effect on P 388 mouse leukemia cells (crystal violet cytometry, three days' incubation). The conditions noted are these: P388, 72 h, 2×10^3 cells/well, read-out: IC50 (concentration at which the cell count is 50% less than that of the control). It is filed as cell-based. The procedure: Cytocidal Effect A 96-well plate was innoculated with 2×10^3 cells/well of P 388 mouse leukemia cell line. The compound of the present invention was dissoved in purified water or dimethylsulfoxide, and the solution was diluted with medium to various concentrations and placed into respective wells and incubated. After three day's incubation, the plate was fixed with glutaraldehyde and stained with crystal violet for cytometry.

As to `COc1ccc2c(c1)C(=O)c1c-2nc2ccccc2c1NCCN(C)C.Cl.Cl` [Compound 1, 10-(((dimethylamino)ethyl)amino)-2-methoxy-11H-indeno[1,2-b]quinolin-11-one dihydrochloride], the IC50 came out at 0.34 µg/mL.
With `CN(C)CCNc1c2c(nc3ccccc13)-c1ccc(O)cc1C2=O.Cl.Cl` [Compound 2, 10-(((dimethylamino)ethyl)amino)-2-hydroxy-11H-indeno[1,2-b]quinolin-11-one dihydrochloride], the IC50 came out at 0.15 µg/mL.
As for `CN(C)CCNc1c2c(nc3ccccc13)-c1cc(O)ccc1C2=O` [Compound 3-a], the IC50 stood at 0.15 µg/mL (≈ 0.45 µM).
Then `COc1ccc2c(NCCN(C)C)c3c(nc2c1)-c1ccccc1C3=O` [Compound 4], with 0.25 µg/mL (≈ 0.72 µM).
Take `CN(C)CCNc1c2c(nc3cc(O)ccc13)-c1ccccc1C2=O` [Compound 5]: the IC50 was 0.052 µg/mL (≈ 0.156 µM).
Take `CN(C)CCCNc1c2c(nc3cc(O)ccc13)-c1ccccc1C2=O` [Compound 7-a]: the IC50 was determined as 0.16 µg/mL (≈ 0.461 µM).
For `CCN(CC)CCSc1c2c(nc3ccc(O)cc13)-c1ccccc1C2=O` [Compound 10-a], the IC50 was 0.42 µg/mL (≈ 1.11 µM).
In the case of `CCN(CC)CCOc1c2c(nc3ccc(O)cc13)-c1ccccc1C2=O` [Compound 11, 10-(((diethylamino)ethoxy)-8-hydroxy-11H-indeno[1,2-b]quinolin-11-one hydrochloride] it was 0.096 µg/mL; in that of `CN(C)CCNc1c2c(nc3ccc(O)cc13)-c1ccccc1C2=O` [Compound 12], 0.16 µg/mL (≈ 0.48 µM); in that of `COc1ccc2nc3c(c(N4CCN(C)CC4)c2c1)C(=O)c1ccccc1-3` [Compound 13], 0.37 µg/mL (≈ 1.03 µM).
`CN1CCN(c2c3c(nc4ccc(O)cc24)-c2ccccc2C3=O)CC1` [Compound 14]: the IC50 was 0.22 µg/mL (≈ 0.637 µM).
For `O=C1c2ccccc2-c2nc3ccc(O)cc3c(N3CCC(N4CCCCC4)CC3)c21` [Compound 16-a], the IC50 came to 0.43 µg/mL (≈ 1.04 µM).
